According to the supplement of paper PMC10307832:

What was measured:
Experiment in all cases: relative viability (nuclei count vs DMSO), 5 days (fraction); higher = more cells survive
Zebularine + Linsitinib = compound: O=c1ncccn1[C@@H]1O[C@H](CO)[C@@H](O)[C@H]1O [Zebularine] + C[C@]1(O)C[C@@H](c2nc(-c3ccc4ccc(-c5ccccc5)nc4c3)c3c(N)nccn32)C1 [Linsitinib] (partner 1 µM)
Summary of the method: (§1)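 Each reported value is a median over duplicate plates. It expresses relative viability: treated-well nuclei count divided by vehicle-well nuclei count. Lung cancer cell lines in 1536-well plates were dosed by pin tool a day after seeding, alone with one drug or with a fixed anchor-drug dose plus five library-drug doses (not always all listed) in √10 steps, and nuclei were counted after 5 days.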

Zebularine + Palbociclib = compound: O=c1ncccn1[C@@H]1O[C@H](CO)[C@@H](O)[C@H]1O [Zebularine] + CC(=O)c1c(C)c2cnc(Nc3ccc(N4CCNCC4)cn3)nc2n(C2CCCC2)c1=O [Palbociclib] (partner 0.5 µM)
Summary of the method: as §1

BI-D1870 + Tozasertib = compound: CC(C)CCN1c2nc(Nc3cc(F)c(O)c(F)c3)ncc2N(C)C(=O)C1C [BI-D1870] + Cc1cc(Nc2cc(N3CCN(C)CC3)nc(Sc3ccc(NC(=O)C4CC4)cc3)n2)n[nH]1 [Tozasertib] (partner 0.1 µM)
Summary of the method: as §1

Zebularine + Navitoclax = compound: O=c1ncccn1[C@@H]1O[C@H](CO)[C@@H](O)[C@H]1O [Zebularine] + CC1(C)CCC(c2ccc(Cl)cc2)=C(CN2CCN(c3ccc(C(=O)NS(=O)(=O)c4ccc(N[C@H](CCN5CCOCC5)CSc5ccccc5)c(S(=O)(=O)C(F)(F)F)c4)cc3)CC2)C1 [Navitoclax] (partner 0.5 µM)
Summary of the method: as §1

Cell Line	relative viability (Zebularine + Linsitinib; first compound 1 µM)	relative viability (Zebularine + Linsitinib; first compound 3.162 µM)	relative viability (Zebularine + Linsitinib; first compound 10 µM)	relative viability (Zebularine + Linsitinib; first compound 31.62 µM)	relative viability (Zebularine + Linsitinib; first compound 100 µM)	relative viability (Zebularine + Palbociclib; first compound 1 µM)	relative viability (Zebularine + Palbociclib; first compound 3.162 µM)	relative viability (Zebularine + Palbociclib; first compound 10 µM)	relative viability (Zebularine + Palbociclib; first compound 31.62 µM)	relative viability (Zebularine + Palbociclib; first compound 100 µM)	relative viability (BI-D1870 + Tozasertib; first compound 0.04 µM)	relative viability (BI-D1870 + Tozasertib; first compound 0.1265 µM)	relative viability (BI-D1870 + Tozasertib; first compound 0.4 µM)	relative viability (BI-D1870 + Tozasertib; first compound 1.265 µM)	relative viability (BI-D1870 + Tozasertib; first compound 4 µM)	relative viability (Zebularine + Navitoclax; first compound 1 µM)	relative viability (Zebularine + Navitoclax; first compound 3.162 µM)	relative viability (Zebularine + Navitoclax; first compound 10 µM)	relative viability (Zebularine + Navitoclax; first compound 31.62 µM)	relative viability (Zebularine + Navitoclax; first compound 100 µM)
COR-L23	0.977	1.05	0.448	0.493	0.211	0.314	0.286	0.176	0.224	0.146	0.199	0.166	0.145	0.181	0.13	1.02	1.15	0.323	0.558	0.218
NCI-H2087	1.11	1.09	0.501	0.67	0.29	0.275	0.207	0.243	0.218	0.185	0.217	0.212	0.203	0.215	0.142	1.16	0.885	0.488	0.767	0.37
LC-2-ad	0.924	0.844	0.591	0.496	0.157	0.496	0.507	0.322	0.408	0.301	0.561	0.479	0.443	0.367	0.373	0.409	0.422	0.291	0.33	0.137
NCI-H1915	1.09	1.08	1.07	1.09	0.94	0.523	0.525	0.485	0.541	0.352	0.466	0.395	0.389	0.427	0.313	0.816	0.769	0.565	0.872	0.771
NCI-H1793	0.882	0.978	0.365	0.464	0.197	0.364	0.309	0.214	0.186	0.221	0.376	0.246	0.207	0.275	0.226	0.403	0.448	0.318	0.285	0.208
NCI-H2023	0.664	0.689	0.604	0.63	0.303	0.361	0.375	0.235	0.322	0.245	0.308	0.265	0.253	0.227	0.164	1.14	1.04	0.851	0.924	0.247
COR-L 105	0.986	0.956	0.928	1.22	0.939	0.515	0.373	0.416	0.406	0.43	0.416	0.319	0.343	0.341	0.33	0.642	0.738	0.674	0.768	0.747
RERF-LC-KJ	0.99	0.916	–	1.01	1.03	1.09	1.01	0.871	1.3	1.24	0.467	0.398	0.418	0.338	0.239	–	1.08	0.507	0.939	0.968
LXF-289	1.08	0.977	0.96	0.78	0.289	0.641	0.66	0.573	0.395	0.233	0.173	0.211	0.191	0.183	0.195	1.02	0.945	0.851	0.744	0.226
PC-14	1.07	0.996	0.281	0.143	0.179	0.627	0.417	0.175	0.103	0.118	0.62	0.561	0.55	0.659	0.367	1.07	1.06	0.346	0.113	0.129
NCI-H1666	0.748	0.862	0.675	0.804	0.562	0.629	0.642	0.58	0.689	0.654	0.673	0.569	0.584	0.569	0.537	0.98	1.05	0.857	1.08	0.575
NCI-H2085	1.18	0.878	0.76	0.887	0.428	0.451	0.47	0.509	0.552	0.394	0.816	0.735	0.544	0.547	0.401	1.19	1.17	0.868	1.08	0.573
NCI-H1734	0.917	0.87	0.526	0.532	0.333	0.408	0.334	0.322	0.3	0.239	0.249	0.263	0.288	0.256	0.22	0.926	0.769	0.513	0.475	0.22
NCI-H2126	0.743	0.644	0.668	0.624	0.478	0.363	0.342	0.386	0.377	0.318	0.899	0.794	0.78	0.722	0.538	0.862	0.813	0.766	0.735	0.509
EMC-BAC-2	0.899	0.886	0.637	0.879	0.839	0.545	0.507	0.431	0.6	0.539	0.317	0.248	0.316	0.288	0.259	1.35	1.15	0.683	1.28	1.3
NCI-H1993	0.775	0.637	–	0.795	0.657	0.726	0.704	0.615	0.633	0.695	0.606	0.602	0.58	0.566	0.612	0.946	0.946	–	1.02	0.754

Cell Line	relative viability (Zebularine + Linsitinib; first compound 1 µM)	relative viability (Zebularine + Linsitinib; first compound 3.162 µM)	relative viability (Zebularine + Linsitinib; first compound 10 µM)	relative viability (Zebularine + Linsitinib; first compound 31.62 µM)	relative viability (Zebularine + Linsitinib; first compound 100 µM)	relative viability (Zebularine + Palbociclib; first compound 1 µM)	relative viability (Zebularine + Palbociclib; first compound 3.162 µM)	relative viability (Zebularine + Palbociclib; first compound 10 µM)	relative viability (Zebularine + Palbociclib; first compound 31.62 µM)	relative viability (Zebularine + Palbociclib; first compound 100 µM)	relative viability (BI-D1870 + Tozasertib; first compound 0.04 µM)	relative viability (BI-D1870 + Tozasertib; first compound 0.1265 µM)	relative viability (BI-D1870 + Tozasertib; first compound 0.4 µM)	relative viability (BI-D1870 + Tozasertib; first compound 1.265 µM)	relative viability (BI-D1870 + Tozasertib; first compound 4 µM)	relative viability (Zebularine + Navitoclax; first compound 1 µM)	relative viability (Zebularine + Navitoclax; first compound 3.162 µM)	relative viability (Zebularine + Navitoclax; first compound 10 µM)	relative viability (Zebularine + Navitoclax; first compound 31.62 µM)	relative viability (Zebularine + Navitoclax; first compound 100 µM)
NCI-H520	0.98	1.02	0.47	0.297	0.199	0.213	0.217	0.202	0.201	0.175	0.508	0.441	0.44	0.358	0.36	1.16	0.994	0.442	0.427	0.294
NCI-H647	1.42	1.06	0.426	0.172	0.17	0.334	0.34	0.149	0.0894	0.104	0.399	0.251	0.442	0.385	0.138	1.25	1.06	0.232	0.143	0.115
SK-LU-1	1.21	0.936	0.588	0.611	0.564	0.417	0.408	0.347	0.38	0.356	0.365	0.276	0.262	0.339	0.204	0.965	0.868	0.435	0.61	0.306
NCI-H2009	1.17	1.15	1.03	0.984	0.386	0.249	0.229	0.234	0.198	0.197	0.826	0.723	0.639	0.516	0.321	1.12	1.13	0.951	0.876	0.358
LOU-NH91	0.893	0.963	0.868	0.876	0.629	0.54	0.524	0.518	0.552	0.47	0.688	0.536	0.695	0.586	0.405	0.676	0.659	0.634	0.603	0.395
NCI-H2405	0.891	0.918	0.873	0.77	0.643	0.524	0.533	0.478	0.509	0.435	0.837	0.697	0.728	0.846	0.421	0.913	0.831	0.798	0.833	0.61
LCLC-97TM1	0.192	0.168	0.144	0.128	0.11	0.2	0.199	0.0967	0.102	0.111	0.302	0.289	0.221	0.225	0.186	0.422	0.351	0.238	0.149	0.143
NCI-H727	0.3	0.3	0.286	0.365	0.203	0.652	0.729	0.69	0.634	0.618	0.683	0.699	0.561	0.773	0.557	0.492	0.451	0.474	0.442	0.411
H3255	0.979	1.05	–	0.956	1	0.3	0.288	0.336	0.314	0.321	0.641	0.57	0.68	0.604	0.739	0.627	0.453	–	0.36	0.409
SK-MES-1	1.15	1.14	0.78	0.567	0.299	0.346	0.359	0.341	0.328	0.272	1.06	0.82	0.766	0.607	0.22	1.41	1.32	0.781	0.526	0.33
NCI-H1437	1.18	1.2	–	0.989	0.342	0.308	0.33	0.308	0.453	0.329	0.432	0.382	0.377	0.387	0.363	1.23	1.16	–	0.99	0.364
LU99A	0.66	0.529	0.437	0.344	0.169	0.483	0.433	0.331	0.278	0.187	0.274	0.253	0.273	0.316	0.25	0.827	0.635	0.596	0.408	0.166
HCC-827	0.974	1.01	0.941	0.757	0.361	0.555	0.551	0.424	0.485	0.339	0.421	0.401	0.377	0.396	0.369	0.98	0.986	0.968	0.714	0.418
LK-2	0.52	0.564	0.371	0.35	0.218	0.874	0.797	0.424	0.28	0.204	0.146	0.175	0.172	0.175	0.148	0.759	0.946	0.588	0.787	0.417
HCC-366	0.764	0.75	0.428	0.355	0.0776	0.367	0.387	0.246	0.23	0.108	0.0892	0.057	0.055	0.0986	0.0506	1.12	1.02	0.449	0.556	0.0921
BEN	0.911	0.777	0.432	0.384	0.308	0.451	0.473	0.451	0.422	0.368	0.557	0.618	0.438	0.548	0.605	0.0641	0.0628	0.162	0.0748	0.0383
